Test system: alpha-smooth muscle actin (α-SMA)
Assay: Inhibition of TGF-β induced expression of alpha-smooth muscle actin (α-SMA) in CFSC cells, western blot
Type: cell-based
Conditions: compound at 10 μM, TGF-β (10 ng/mL), 24 hours, decrease in band intensity vs TGF-β only
Procedure: The ability of a compound to inhibit the TGF-β induced expression of alpha-smooth muscle actin (α-SMA) was evaluated in CCL4-treated fat storing (CFSC) cells. α-SMA is considered as a reliable marker of hepatic stellate cell activation and a key biomarker for liver fibrosis. See, e.g., Meng et al., Nat. Rev. Nephrol. 2016, 12, 325-38; Fabregat et al., FEBS J. 2016, 283, 2219-32.
CFSC cells maintained in a DMEM medium supplemented with 10% fetal bovine serum were seeded to 12-well culture dishes and grown to a confluence of 60-70% the next day. Culture was changed to a serum-free DMEM medium and treated with a compound at 10 μM in the presence of TGF-β (10 ng/mL). The cells were incubated for another 24 hours. All culture was maintained at 37° C. in 5% carbon dioxide.
A NP-40 lysate solution (50 mM Tris (pH 7.4), 150 mM NaCl, 1% NP-40) with EDTA free cocktail added was used to lyse the cells on ice for 30 min. The lysate was collected and centrifuged at 4° C. for 10 min at 12,000 rpm. The pellet was discarded and the supernatant was transferred to a new tube. Cell lysates were loaded with 5×loading buffer and boiled for 10 min, resolved by 10% SDS-polyacrylamide gel electrophoresis (SDS-PAGE), and transferred to PVDF membrane. The membrane was blocked with 5% skim milk in Tris-buffered saline and TWEEN® 20 (TBST; 10 mM Tris-HCl (pH 8.0), 150 mM NaCl, 0.1% TWEEN® 20) for 1 h at room temperature and then incubated with α-SMA and […] antibodies overnight at 4° C. After washing twice with TBST, the membrane was probed with a horseradish […] anti-immunoglobulin (1:5000 dilution) for 1 h at room temperature. After two subsequent rinses in TBST, immunoreactive products were reacted with ECL and visualized by a UVP CHEMSTUDIO™ imaging system. The western blotting bands are quantitated using an ImageJ software. The percentage of inhibition was obtained by calculating the percentage decrease in the band intensity compared to the one treated with TGF-β only.
The results are summarized in Table 1, wherein A represents a value no less of 90% inhibition, B represents a value less than 90% but no less than 80% inhibition, C represents a value less than 80% but no less than 70% inhibition, D represents a value less than 70% but no less than 50% inhibition, and E represents a value less than 50% with a compound at 10 μM.

SMILES	inhibition at 10 µM
CC1=C(CC(=O)O)c2cc(F)ccc2/C1=C\c1ccc(Oc2ccccc2)cc1 [Compound A1, 2-[(1Z)-5-Fluoro-2-methyl-1-[(4-phenoxyphenyl)methylidene]-1H-inden-3-yl]acetic acid]	> 90%
COc1ccc(Oc2ccc(/C=C3/C(C)=C(CC(=O)O)c4cc(F)ccc43)cc2)cc1 [Compound A2, 2-[(1Z)-5-Fluoro-1-{[4-(4-methoxyphenoxy)phenyl]methylidene}-2-methyl-1H-inden-3-yl]acetic acid]	> 90%
CC1=C(CC(=O)O)c2cc(F)ccc2/C1=C\c1ccc(Oc2cccc(C(F)(F)F)c2)cc1Cl [Compound A3, 2-[(1Z)-1-({2-Chloro-4-[3-(trifluoromethyl)phenoxy]phenyl}methylidene)-5-fluoro-2-methyl-1H-inden-3-yl]acetic acid]	> 90%
CC1=C(CC(=O)O)c2cc(F)ccc2/C1=C\c1ccc(Oc2ccc(C)cc2)cc1 [Compound A4, 2-[(1Z)-5-Fluoro-2-methyl-1-{[4-(4-methylphenoxy)phenyl]methylidene}-1H-inden-3-yl]acetic acid]	> 90%
CC1=C(CC(=O)O)c2cc(F)ccc2/C1=C\c1ccc(Oc2ccc(C(C)C)cc2)cc1 [Compound A5, 2-[(1Z)-5-Fluoro-2-methyl-1-({4-[4-(propan-2-yl)phenoxy]phenyl}methylidene)-1H-inden-3-yl]acetic acid]	> 90%
CC1=C(CC(=O)O)c2cc(F)ccc2/C1=C\c1ccc(Oc2ccc(Br)cc2)cc1 [Compound A6, 2-[(1Z)-1-{[4-(4-Bromophenoxy)phenyl]methylidene}-5-fluoro-2-methyl-1H-inden-3-yl]acetic acid]	> 90%
CC1=C(CC(=O)O)c2cc(F)ccc2/C1=C\c1ccc(Oc2cccc(C)c2)cc1 [Compound A7, 2-[(1Z)-5-Fluoro-2-methyl-1-{[4-(3-methylphenoxy)phenyl]methylidene}-1H-inden-3-yl]acetic acid]	> 90%
CC1=C(CC(=O)O)c2cc(F)ccc2/C1=C\c1ccc(Oc2cccc(C(F)(F)F)c2)cc1 [Compound A9, (Z)-2-(5-Fluoro-2-methyl-1-(4-(3-(trifluoromethyl)phenoxy)benzylidene)-1H-inden-3-yl)acetic acid]	> 90%
CCc1ccc(Oc2ccc(/C=C3/C(C)=C(CC(=O)O)c4cc(F)ccc43)cc2)cc1 [Compound A10, 2-[(1Z)-1-{[4-(4-Ethylphenoxy)phenyl]methylidene}-5-fluoro-2-methyl-1H-inden-3-yl]acetic acid]	> 90%
COc1ccc(Oc2ccc(/C=C3/C(C)=C(CC(=O)O)c4cc(F)ccc43)c(Cl)c2)cc1 [Compound A12, 2-[(1Z)-1-{[2-Chloro-4-(4-methoxyphenoxy)phenyl]methylidene}-5-fluoro-2-methyl-1H-inden-3-yl]acetic acid]	> 90%
COc1cc(Oc2ccc(C(C)C)cc2)ccc1/C=C1/C(C)=C(CC(=O)O)c2cc(F)ccc21 [Compound A13, 2-[(1Z)-5-Fluoro-1-({2-methoxy-4-[4-(propan-2-yl)phenoxy]phenyl}-methylidene)-2-methyl-1H-inden-3-yl]acetic acid]	< 50%
CC1=C(CC(=O)O)c2cc(F)ccc2/C1=C\c1ccc(Oc2ccc3ccccc3c2)cc1 [Compound A14, 2-[(1Z)-5-Fluoro-2-methyl-1-{[4-(naphthalen-2-yloxy)phenyl]methylidene}-1H-inden-3-yl]acetic acid]	> 90%
CC1=C(CC(=O)O)c2cc(F)ccc2/C1=C\c1ccc(Oc2ccc(C(C)C)cc2)cc1Cl [Compound A15, 2-[(1Z)-1-({2-Chloro-4-[4-(propan-2-yl)phenoxy]phenyl}methylidene)-5-fluoro-2-methyl-1H-inden-3-yl]acetic acid]	80 to 90%
CC1=C(CC(=O)O)c2cc(F)ccc2/C1=C\c1ccc(Oc2ccc(F)cc2F)cc1 [Compound A16, 2-[(1Z)-1-{[4-(2,4-Difluorophenoxy)phenyl]methylidene}-5-fluoro-2-methyl-1H-inden-3-yl]acetic acid]	> 90%
CC1=C(CC(=O)O)c2cc(F)ccc2/C1=C\c1ccc(Oc2ccc(F)cc2Br)cc1 [Compound A17, 2-[(1Z)-1-{[4-(2-bromo-4-fluorophenoxy)phenyl]methylidene}-5-fluoro-2-methyl-1H-inden-3-yl]acetic acid]	> 90%
CC1=C(CC(=O)O)c2cc(F)ccc2/C1=C\c1ccc(Oc2cc(F)c(F)cc2F)cc1 [Compound A18, 2-[(1Z)-5-Fluoro-2-methyl-1-{[4-(2,4,5-trifluorophenoxy)phenyl]methylidene}-1H-inden-3-yl]acetic acid]	70 to 80%
CC1=C(CCC(=O)O)c2ccccc2/C1=C\c1ccc(Oc2ccc(F)cc2)cc1 [Compound A19, 3-[(1Z)-1-{[4-(4-Fluorophenoxy)phenyl]methylidene}-2-methyl-1H-inden-3-yl]propanoic acid]	> 90%
CC1=C(CC(=O)O)c2cc(F)ccc2/C1=C\c1ccc(Oc2ccc(F)nc2)cc1 [Compound A20, 2-[(1Z)-5-Fluoro-1-({4-[(6-fluoropyridin-3-yl)oxy]phenyl}methylidene)-2-methyl-1H-inden-3-yl]acetic acid]	< 50%
CC1=C(CC(=O)O)c2cc(F)ccc2/C1=C\c1ccc(Oc2cnc(F)c(C)c2)cc1 [Compound A21, 2-[(1Z)-5-Fluoro-1-({4-[(6-fluoro-5-methylpyridin-3-yl)oxy]phenyl}-methylidene)-2-methyl-1H-inden-3-yl]acetic acid]	80 to 90%
CC1=C(CC(=O)O)c2cc(F)ccc2/C1=C\c1ccc(Oc2cccc3ncccc23)cc1 [Compound A22, (Z)-2-(5-Fluoro-2-methyl-1-(4-(quinolin-5-yloxy)benzylidene)-1H-inden-3-yl)acetic acid]	50 to 70%
CC1=C(CC(=O)NO)c2cc(F)ccc2/C1=C\c1ccc(Oc2ccccc2)cc1 [Compound A23, 2-[(1Z)-5-Fluoro-2-methyl-1-[(4-phenoxyphenyl)methylidene]-1H-inden-3-yl]-N-hydroxyacetamide]	> 90%
CC1=C(CC(=O)NO)c2cc(F)ccc2/C1=C\c1ccc(Oc2ccc(F)cc2)cc1 [Compound A24, 2-[(1Z)-5-Fluoro-1-{[4-(4-fluorophenoxy)phenyl]methylidene}-2-methyl-1H-inden-3-yl]-N-hydroxyacetamide]	80 to 90%
CC1=C(CC(N)=O)c2cc(F)ccc2/C1=C\c1ccc(Oc2ccc(F)cc2)cc1 [Compound A25, 2-[(1Z)-5-Fluoro-1-{[4-(4-fluorophenoxy)phenyl]methylidene}-2-methyl-1H-inden-3-yl]acetamide]	70 to 80%
CNC(=O)CC1=C(C)/C(=C/c2ccc(Oc3ccc(F)cc3)cc2)c2ccc(F)cc21 [Compound A26, 2-[(1Z)-5-Fluoro-1-{[4-(4-fluorophenoxy)phenyl]methylidene}-2-methyl-1H-inden-3-yl]-N-methylacetamide]	70 to 80%
CC1=C(CC(=O)NCCO)c2cc(F)ccc2/C1=C\c1ccc(Oc2ccc(F)cc2)cc1 [Compound A27, 2-[(1Z)-5-Fluoro-1-{[4-(4-fluorophenoxy)phenyl]methylidene}-2-methyl-1H-inden-3-yl]-N-(2-hydroxyethyl)acetamide]	80 to 90%

Source: US12649712B2, “Indene compounds, pharmaceutical compositions thereof, and their therapeutic applications” (NucMito Pharmaceuticals Co. Ltd., priority 2020, dated 2026)
